pIC50: −log10 of the molar value. Values belong to the compound of their own block, whether it stands above or below them.
Assays:
[1] = biological target: T1, human recombinant GST cleaved CSNK1D (Homo sapiens, UniProt P48730); assay: Purified Enzyme Assay (ADP-Glo CSNK1D Kinase Assay); format: biochemical; conditions: 2 nM CSNK1D; peptide substrate 150 μM; ATP 20 μM; 45 minutes at room temperature
T1 construct: GST (cleaved yes); purchased University of Dundee clone DU 19064
How it was run: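 GST-cleaved human recombinant CSNK1D phosphorylates peptide PLSRTL-pS-VASLPGL with ATP; compounds added in dose-response, 45 min at room temperature. ADP formed measured by ADP-Glo luminescence and converted to percent activity.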

[2] = biological target: T2, human CSNK1D (Homo sapiens, UniProt P48730); assay: Whole Cell nBRET CSNK1D Binding Assay; conditions: living CHO cells stably expressing human CSNK1D tagged with nanoluciferase; NanoBret tracer 130 nM; 2 hours at 37 C
T2 construct: expressed in transfected cells
T2 sequence (P48730 whole entry): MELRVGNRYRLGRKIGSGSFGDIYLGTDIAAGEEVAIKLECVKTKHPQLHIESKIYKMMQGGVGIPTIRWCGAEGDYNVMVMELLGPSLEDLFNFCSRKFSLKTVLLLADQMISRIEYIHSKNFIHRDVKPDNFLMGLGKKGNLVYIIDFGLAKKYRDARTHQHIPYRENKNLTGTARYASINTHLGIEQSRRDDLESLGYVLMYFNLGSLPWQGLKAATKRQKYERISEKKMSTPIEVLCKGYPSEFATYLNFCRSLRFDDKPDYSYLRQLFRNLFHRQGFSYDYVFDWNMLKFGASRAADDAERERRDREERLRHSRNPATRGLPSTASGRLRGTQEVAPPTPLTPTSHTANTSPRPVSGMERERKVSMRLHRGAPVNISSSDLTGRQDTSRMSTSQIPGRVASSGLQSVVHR

T1 sequence (P48730 whole entry): as above

SMILES: Fc1ccc(-c2nn3c(c2-c2ccnc4[nH]ncc24)CC[C@H]2[C@@H]3C2(F)F)cc1 (stereo in doubt) [Example 355, (5a*S,6a*R)-6,6-Difluoro-2-(4-fluorophenyl)-3-(1H-pyrazolo[3,4-b]pyridin-4-yl)-5,5a,6,6a-tetrahydro-4H-cyclopropa[e]pyrazolo[1,5-a]pyridine]
pIC50 [1]: 8.05 | pIC50 [2]: 7.57

SMILES: Fc1ccc(-c2nn3c(c2-c2ccnc4[nH]ccc24)CCCC3)nc1 [Example 3, 4-[2-(5-Fluoro-2-pyridyl)-4,5,6,7-tetrahydropyrazolo[1,5-a]pyridin-3-yl]-1H-pyrrolo[2,3-b]pyridine]
pIC50 [1]: 8.10 | pIC50 [2]: 7.39

SMILES: Fc1ccc(-c2nn3c(c2-c2ccnc4[nH]ncc24)CCC(F)(COC(F)F)C3)nc1 (single isomer, unassigned) [Example 315, (*R)-4-(6-((Difluoromethoxy)methyl)-6-fluoro-2-(5-fluoropyridin-2-yl)-4,5,6,7-tetrahydropyrazolo[1,5-a]pyridin-3-yl)-1H-pyrazolo[3,4-b]pyridine]
pIC50 [1]: 7.14 | pIC50 [2]: 5.73

SMILES: Cc1cc(-c2c(-c3ccc(F)cc3)nn3c2CC2(CC2)C3)c2cn[nH]c2n1 [Example 248, 2-(4-Fluorophenyl)-3-(6-methyl-1H-pyrazolo[3,4-b]pyridin-4-yl)spiro[4,6-dihydropyrrolo[1,2-b]pyrazole-5,1′-cyclopropane]]
pIC50 [1]: 8.70 | pIC50 [2]: 8.22

SMILES: C[C@@H]1C[C@H](C)n2nc(-c3ccc(F)cn3)c(-c3ccnc4[nH]ncc34)c2O1 (single isomer, unassigned) [Example 203, (5*R,7*S)-2-(5-Fluoro-2-pyridyl)-5,7-dimethyl-3-(1H-pyrazolo[3,4-b]pyridin-4-yl)-6,7-dihydro-5H-pyrazolo[5,1-b][1,3]oxazine]
pIC50 [1]: 7.47 | pIC50 [2]: 5.54

SMILES: Cc1cc(-c2c(-c3ccc(F)cc3)nn3c2OCC(C)(C)C3)c2cn[nH]c2n1 [Example 213, 2-(4-Fluorophenyl)-6,6-dimethyl-3-(6-methyl-1H-pyrazolo[3,4-b]pyridin-4-yl)-6,7-dihydro-5H-pyrazolo[5,1-b][1,3]oxazine]
pIC50 [1]: 9.00 | pIC50 [2]: 8.70

SMILES: CC(=O)Nc1cc(-c2c(-c3ccc(F)cc3)nn3c2OCCCC3)ccn1 [Example 215, N-(4-(2-(4-Fluorophenyl)-5,6,7,8-tetrahydropyrazolo[5,1-b][1,3]oxazepin-3-yl)pyridin-2-yl)acetamide]
pIC50 [1]: 9.00 | pIC50 [2]: 7.55

SMILES: Fc1ccc(-c2nn3c(c2-c2ccnc4[nH]ncc24)CCC(F)(COC(F)F)C3)nc1 (single isomer, unassigned) [Example 314, (*S)-4-(6-((Difluoromethoxy)methyl)-6-fluoro-2-(5-fluoropyridin-2-yl)-4,5,6,7-tetrahydropyrazolo[1,5-a]pyridin-3-yl)-1H-pyrazolo[3,4-b]pyridine]
pIC50 [1]: 8.40 | pIC50 [2]: 7.85

SMILES: Cc1nc(-c2nn3c(c2-c2ccnc4[nH]ncc24)COC(C)(C)C3)ccc1F [Example 164, 2-(5-Fluoro-6-methylpyridin-2-yl)-6,6-dimethyl-3-(1H-pyrazolo[3,4-b]pyridin-4-yl)-6,7-dihydro-4H-pyrazolo[5,1-c][1,4]oxazine]
pIC50 [1]: 8.05 | pIC50 [2]: 6.78

SMILES: Fc1ccc(-c2nn3c(c2-c2ccnc4[nH]ncc24)[C@H]2CC[C@@H]3C2)nc1 (single isomer, unassigned) [Example 63, (4*S,7*R)-2-(5-Fluoropyridin-2-yl)-3-(1H-pyrazolo[3,4-b]pyridin-4-yl)-4,5,6,7-tetrahydro-4,7-methanopyrazolo[1,5-a]pyridine]
pIC50 [1]: 7.92 | pIC50 [2]: 6.49

SMILES: [2H]C([2H])([2H])OC([2H])([2H])[C@@]1(F)CCc2c(-c3cc(C)nc4[nH]ncc34)c(-c3ccc(F)cn3)nn2C1 (single isomer, unassigned) [Example 313, (*R)-4-[6-[(Methoxy-d3)methyl-d2]-6-fluoro-2-(5-fluoro-2-pyridyl)-5,7-dihydro-4H-pyrazolo[1,5-a]pyridin-3-yl]-6-methyl-1H-pyrazolo[3,4-b]pyridine]
pIC50 [1]: 6.99 | pIC50 [2]: 5.29

SMILES: [2H]C([2H])([2H])C1(C([2H])([2H])[2H])Cn2nc(-c3ccc(F)cc3)c(-c3nc(C)nc4[nH]ncc34)c2CO1 [Example 410, 2-(4-Fluorophenyl)-6,6-bis(methyl-d3)-3-(6-methyl-1H-pyrazolo[3,4-d]pyrimidin-4-yl)-6,7-dihydro-4H-pyrazolo[5,1-c][1,4]oxazine]
pIC50 [1]: 8.70 | pIC50 [2]: 7.77

SMILES: Fc1ccc(-c2nn3c(c2-c2ccnc4[nH]ncc24)C[C@H]2C[C@H]23)nc1 [Example 25, (4aR,5aR)-2-(5-Fluoropyridin-2-yl)-3-(1H-pyrazolo[3,4-b]pyridin-4-yl)-4,4a,5,5a-tetrahydrocyclopropa[4,5]pyrrolo[1,2-b]pyrazole]
pIC50 [1]: 7.31 | pIC50 [2]: 6.17

SMILES: Cc1cc(-c2c(-c3cncc(F)c3)nn3c2COCC3)c2cn[nH]c2n1 [Example 77, 2-(5-Fluoro-3-pyridyl)-3-(6-methyl-1H-pyrazolo[3,4-b]pyridin-4-yl)-6,7-dihydro-4H-pyrazolo[5,1-c][1,4]oxazine]
pIC50 [1]: 6.94 | pIC50 [2]: 5.63

SMILES: CC1(C)Cc2c(-c3ccnc4[nH]ccc34)c(-c3ccc(F)cn3)nn2C1 [Example 233, 4-[2-(5-Fluoro-2-pyridyl)-5,5-dimethyl-4,6-dihydropyrrolo[1,2-b]pyrazol-3-yl]-1H-pyrrolo[2,3-b]pyridine]
pIC50 [1]: 8.70 | pIC50 [2]: 8.15

SMILES: CCC(=O)Nc1cc(-c2c(-c3ccc(F)cn3)nn3c2OCC(C)(C)C3)ccn1 [Example 447, N-(4-(2-(5-Fluoropyridin-2-yl)-6,6-dimethyl-6,7-dihydro-5H-pyrazolo[5,1-b][1,3]oxazin-3-yl)pyridin-2-yl)propionamide]
pIC50 [1]: 8.70 | pIC50 [2]: 8.30

SMILES: C[C@@H]1[C@@H](C)OCc2c(-c3ccnc4[nH]ncc34)c(-c3ccc(F)cc3)nn21 (relative stereo) [Example 114, (6*R,7*R)-2-(4-Fluorophenyl)-6,7-dimethyl-3-(1H-pyrazolo[3,4-b]pyridin-4-yl)-6,7-dihydro-4H-pyrazolo[5,1-c][1,4]oxazine]
pIC50 [1]: 8.22 | pIC50 [2]: 7.26

SMILES: c1cc(-c2c(-c3cscn3)nn3c2CCCC3)c2cn[nH]c2n1 [Example 31, 4-(3-(1H-Pyrazolo[3,4-b]pyridin-4-yl)-4,5,6,7-tetrahydropyrazolo[1,5-a]pyridin-2-yl)thiazole]
pIC50 [1]: 7.19 | pIC50 [2]: 6.00

Further compounds by rising pIC50 [1], results first:

pIC50 [1]: 5.30 | pIC50 [2]: < 5.00
SMILES: Cc1nc2[nH]nc(C)c2c(-c2c(-c3ccc(F)cn3)nn3c2CC[C@@]2(C3)CC2(F)F)c1F (single isomer, unassigned) [Example 333, (*S)-2,2-Difluoro-3′-(5-fluoro-3,6-dimethyl-1H-pyrazolo[3,4-b]pyridin-4-yl)-2′-(5-fluoropyridin-2-yl)-4′,5′-dihydro-7′H-spiro[cyclopropane-1,6′-pyrazolo[1,5-a]pyridine]]

pIC50 [1]: 6.46 | pIC50 [2]: 5.24
SMILES: CCn1ncc2cc(-c3c(-c4ccc(F)cn4)nn4c3COC(C)(C)C4)cnc21 [Example 141, 3-(1-Ethyl-1H-pyrazolo[3,4-b]pyridin-5-yl)-2-(5-fluoropyridin-2-yl)-6,6-dimethyl-6,7-dihydro-4H-pyrazolo[5,1-c][1,4]oxazine]

pIC50 [1]: 6.92 | pIC50 [2]: 6.24
SMILES: Cc1cc(-c2c(-c3ccc(Cl)c(F)c3)nn3c2COCC3)c2cn[nH]c2n1 [Example 73, 2-(4-Chloro-3-fluoro-phenyl)-3-(6-methyl-1H-pyrazolo[3,4-b]pyridin-4-yl)-6,7-dihydro-4H-pyrazolo[5,1-c][1,4]oxazine]

pIC50 [1]: 7.36 | pIC50 [2]: 6.24
SMILES: CCn1ncc2cc(-c3c(-c4ccc(F)cn4)nn4c3OCC(C)(C)C4)cnc21 [Example 452, 3-(1-Ethyl-1H-pyrazolo[3,4-b]pyridin-5-yl)-2-(5-fluoropyridin-2-yl)-6,6-dimethyl-6,7-dihydro-5H-pyrazolo[5,1-b][1,3]oxazine]

pIC50 [1]: 7.77 | pIC50 [2]: 6.46
SMILES: CC1(C)Cn2nc(-c3cscn3)c(-c3ccnc4[nH]ncc34)c2CO1 [Example 124, 6,6-Dimethyl-3-(1H-pyrazolo[3,4-b]pyridin-4-yl)-2-(thiazol-4-yl)-6,7-dihydro-4H-pyrazolo[5,1-c][1,4]oxazine]

pIC50 [1]: 8.40 | pIC50 [2]: 6.87
SMILES: CC[C@]1(C)Cn2nc(-c3ccc(F)cn3)c(-c3ccnc4[nH]ncc34)c2CO1 (single isomer, unassigned) [Example 169, (*R)-6-Ethyl-2-(5-fluoropyridin-2-yl)-6-methyl-3-(1H-pyrazolo[3,4-b]pyridin-4-yl)-6,7-dihydro-4H-pyrazolo[5,1-c][1,4]oxazine]

pIC50 [1]: 8.40 | pIC50 [2]: 7.54
SMILES: [2H]C([2H])([2H])C1(C([2H])([2H])[2H])Cc2c(-c3c(F)c(C)nc4[nH]ncc34)c(-c3ccc(F)cn3)nn2C1 [Example 244, 5-Fluoro-4-[2-(5-fluoro-2-pyridyl)-5,5-bis(methyl-d3)-4,6-dihydropyrrolo[1,2-b]pyrazol-3-yl]-6-methyl-1H-pyrazolo[3,4-b]pyridine]

pIC50 [1]: 8.52 | pIC50 [2]: 7.64
SMILES: [2H]C([2H])([2H])C1(C([2H])([2H])[2H])Cn2nc(-c3ccc(F)cn3)c(-c3c(F)c(C)nc4[nH]ncc34)c2CO1 [Example 406, 3-(5-Fluoro-6-methyl-1H-pyrazolo[3,4-b]pyridin-4-yl)-2-(5-fluoropyridin-2-yl)-6,6-bis(methyl-d3)-6,7-dihydro-4H-pyrazolo[5,1-c][1,4]oxazine]

pIC50 [1]: 9.00 | pIC50 [2]: 8.40
SMILES: Cc1cc(-c2c(-c3ccc(F)cc3)nn3c2COC(C)(C)C3)c2cn[nH]c2n1 [Example 145, 2-(4-Fluorophenyl)-6,6-dimethyl-3-(6-methyl-1H-pyrazolo[3,4-b]pyridin-4-yl)-6,7-dihydro-4H-pyrazolo[5,1-c][1,4]oxazine]

From US20230339970A1, “CASEIN KINASE 1 DELTA MODULATORS” (priority 2020, published 2023)
